pIC50: −log10 of the molar value. Read-outs that look alike come from different tables or passages of the source.
Target: T1, human DGAT2 (hDGAT2) (Homo sapiens, UniProt Q96PD7)
T1 construct: made in house; host or cells: Sf-9 insect cells (baculovirus), membrane fraction
T1 sequence (Q96PD7 1-388): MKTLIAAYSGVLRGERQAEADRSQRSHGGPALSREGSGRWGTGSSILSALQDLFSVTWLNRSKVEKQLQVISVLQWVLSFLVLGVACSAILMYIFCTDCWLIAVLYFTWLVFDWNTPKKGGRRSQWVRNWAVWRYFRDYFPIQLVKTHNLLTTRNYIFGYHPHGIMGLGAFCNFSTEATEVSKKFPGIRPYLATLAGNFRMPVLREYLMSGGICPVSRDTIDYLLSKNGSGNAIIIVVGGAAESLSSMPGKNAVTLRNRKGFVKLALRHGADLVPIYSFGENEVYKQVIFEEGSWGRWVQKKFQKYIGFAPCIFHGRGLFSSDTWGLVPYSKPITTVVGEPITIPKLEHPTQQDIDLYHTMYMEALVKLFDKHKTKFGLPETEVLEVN
Test: DGAT2 Enzymatic Activity Assay
Assay type: biochemical
Settings: membrane prep of Sf-9 cells expressing hDGAT2, 25 μM diolein, 5 μM 13C oleoyl-CoA, 13C18-triolein by LC/MS/MS
Procedure, shortened: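 Membranes from Sf-9 cells expressing untagged human DGAT2 (8 ng/μL) incubated at rt in 100 mM Tris·Cl pH 7.0, 20 mM MgCl2, 5% ethanol with 25 μM diolein and 5 μM 13C oleoyl-CoA. 13C18-triolein product quantified by LC/MS/MS against 13C21-triolein internal standard; IC50 by 4-parameter fit.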

| pIC50 (read-out: DGAT2 IC50) | pIC50 (read-out: Human DGAT2 IC50) | Structure (SMILES) |
| --- | --- | --- |
| 7.19 |  | C[C@@]1(NC(=O)c2ccc3c(c2)n(C2CCC2)c(=O)n3-c2cccc(OC(F)F)c2)CCS(=O)(=O)C1 [Example 37, (R)-3-Cyclobutyl-1-(3-(difluoromethoxy)phenyl)-N-(3-methyl-1,1-dioxidotetrahydrothiophen-3-yl)-2-oxo-2,3-dihydro-1H-benzo[d]imidazole-5-carboxamide] |
| 7.62 |  | C[C@@]1(NC(=O)c2ccc3c(c2)n(C2CCCC2)c(=O)n3-c2cccc(OC(F)F)c2)CCS(=O)(=O)C1 [Example 38, (R)-3-Cyclopentyl-1-(3-(difluoromethoxy)phenyl)-N-(3-methyl-1,1-dioxidotetrahydrothiophen-3-yl)-2-oxo-2,3-dihydro-1H-benzo[d]imidazole-5-carboxamide] |
| 6.96 |  | CCn1c(=O)n(-c2cccc(OC(F)F)c2)c2ccc(C(=O)NC3(C)CCS(=O)(=O)CC3)cc21 [Example 39, 1-(3-(Difluoromethoxy)phenyl)-3-ethyl-N-(4-methyl-1,1-dioxidotetrahydro-2H-thiopyran-4-yl)-2-oxo-2,3-dihydro-1H-benzo[d]imidazole-5-carboxamide] |
| 6.71 |  | CCn1c(=O)n(-c2cccc(OC(F)F)c2)c2ccc(C(=O)NC3(C)CS(=O)(=O)C3)cc21 [Example 40, 1-(3-(Difluoromethoxy)phenyl)-3-ethyl-N-(3-methyl-1,1-dioxidothietan-3-yl)-2-oxo-2,3-dihydro-1H-benzo[d]imidazole-5-carboxamide] |
| 6.67 |  | CC1(NC(=O)c2ccc3c(c2)n(C2CC2)c(=O)n3-c2cccc(OC(F)F)c2)CCS(=O)(=O)CC1 [Example 41, 3-Cyclopropyl-1-(3-(difluoromethoxy)phenyl)-N-(4-methyl-1,1-dioxidotetrahydro-2H-thiopyran-4-yl)-2-oxo-2,3-dihydro-1H-benzo[d]imidazole-5-carboxamide] |
| 6.39 |  | CC1(NC(=O)c2ccc3c(c2)n(CCC(F)(F)F)c(=O)n3-c2cccc(OC(F)F)c2)CCS(=O)(=O)CC1 [Example 42, 1-(3-(Difluoromethoxy)phenyl)-N-(4-methyl-1,1-dioxidotetrahydro-2H-thiopyran-4-yl)-2-oxo-3-(3,3,3-trifluoropropyl)-2,3-dihydro-1H-benzo[d]imidazole-5-carboxamide] |
| 6.69 |  | CC1(NC(=O)c2ccc3c(c2)n(CC(F)(F)F)c(=O)n3-c2cccc(OC(F)F)c2)CS(=O)(=O)C1 [Example 43, 1-(3-(Difluoromethoxy)phenyl)-N-(3-methyl-1,1-dioxidothietan-3-yl)-2-oxo-3-(2,2,2-trifluoroethyl)-2,3-dihydro-1H-benzo[d]imidazole-5-carboxamide] |
| 7.06 |  | CC1(NC(=O)c2ccc3c(c2)n(CC(F)(F)F)c(=O)n3-c2cccc(OC(F)F)c2)CCS(=O)(=O)CC1 [Example 44, 1-(3-(difluoromethoxy)phenyl)-N-(4-methyl-1,1-dioxidotetrahydro-2H-thiopyran-4-yl)-2-oxo-3-(2,2,2-trifluoroethyl)-2,3-dihydro-1H-benzo[d]imidazole-5-carboxamide] |
| < 5.00 |  | CC(=O)Nc1ccc(-n2c(=O)n(C(C)C)c3cc(C(=O)NC4(C)CS(=O)(=O)C4)ccc32)cc1O [Example 47, 1-(4-acetamido-3-hydroxyphenyl)-3-isopropyl-N-(3-methyl-1,1-dioxidothietan-3-yl)-2-oxo-2,3-dihydro-1H-benzo[d]imidazole-5-carboxamide] |
| < 5.00 |  | Cc1nc2c(-n3c(=O)n(C(C)C)c4cc(C(=O)NC5(C)CS(=O)(=O)C5)ccc43)cccc2o1 [Example 48, 3-isopropyl-N-(3-methyl-1,1-dioxidothietan-3-yl)-1-(2-methylbenzo[d]oxazol-4-yl)-2-oxo-2,3-dihydro-1H-benzo[d]imidazole-5-carboxamide] |
| < 5.00 |  | Cc1nc2ccc(-n3c(=O)n(C(C)C)c4cc(C(=O)NC5(C)CS(=O)(=O)C5)ccc43)cc2o1 [Example 49, 3-isopropyl-N-(3-methyl-1,1-dioxidothietan-3-yl)-1-(2-methylbenzo[d]oxazol-6-yl)-2-oxo-2,3-dihydro-1H-benzo[d]imidazole-5-carboxamide] |
| < 5.00 |  | CC(C)n1c(=O)n(-c2cccc(F)c2)c2ccc(C(=O)NC3(C)CCS(=O)(=O)CC3)cc21 [Example 50, 1-(3-fluorophenyl)-3-isopropyl-N-(4-methyl-1,1-dioxidotetrahydro-2H-thiopyran-4-yl)-2-oxo-2,3-dihydro-1H-benzo[d]imidazole-5-carboxamide] |
| 6.60 |  | CC(C)Oc1cc(-n2c(=O)n(C(C)C)c3cc(C(=O)NC4(C)CCS(=O)(=O)CC4)ccc32)c(F)cn1 [Example 51, 1-(5-fluoro-2-isopropoxypyridin-4-yl)-3-isopropyl-N-(4-methyl-1,1-dioxidotetrahydro-2H-thiopyran-4-yl)-2-oxo-2,3-dihydro-1H-benzo[d]imidazole-5-carboxamide] |
| < 5.00 |  | CC(C)n1c(=O)n(-c2cccc(C#N)c2)c2ccc(C(=O)NC3(C)CCS(=O)(=O)CC3)cc21 [Example 52, 1-(3-cyanophenyl)-3-isopropyl-N-(4-methyl-1,1-dioxidotetrahydro-2H-thiopyran-4-yl)-2-oxo-2,3-dihydro-1H-benzo[d]imidazole-5-carboxamide] |
| 5.74 |  | CC(C)n1c(=O)n(-c2cccc(C(F)(F)F)c2)c2ccc(C(=O)NC3(C)CCS(=O)(=O)CC3)cc21 [Example 53, 3-isopropyl-N-(4-methyl-1,1-dioxidotetrahydro-2H-thiopyran-4-yl)-2-oxo-1-(3-(trifluoromethyl)phenyl)-2,3-dihydro-1H-benzo[d]imidazole-5-carboxamide] |
| 5.88 |  | CC(C)n1c(=O)n(-c2cccc(N(C)C)c2)c2ccc(C(=O)NC3(C)CCS(=O)(=O)CC3)cc21 [Example 54, 1-(3-(dimethylamino)phenyl)-3-isopropyl-N-(4-methyl-1,1-dioxidotetrahydro-2H-thiopyran-4-yl)-2-oxo-2,3-dihydro-1H-benzo[d]imidazole-5-carboxamide] |
| < 5.00 |  | CC(C)n1c(=O)n(-c2cccc(C(N)=O)c2)c2ccc(C(=O)NC3(C)CCS(=O)(=O)CC3)cc21 [Example 55, 1-(3-carbamoylphenyl)-3-isopropyl-N-(4-methyl-1,1-dioxidotetrahydro-2H-thiopyran-4-yl)-2-oxo-2,3-dihydro-1H-benzo[d]imidazole-5-carboxamide] |
| 6.44 |  | CSc1cccc(-n2c(=O)n(C(C)C)c3cc(C(=O)NC4(C)CCS(=O)(=O)CC4)ccc32)c1 [Example 56, 3-isopropyl-N-(4-methyl-1,1-dioxidotetrahydro-2H-thiopyran-4-yl)-1-(3-(methylthio)phenyl)-2-oxo-2,3-dihydro-1H-benzo[d]imidazole-5-carboxamide] |
| < 5.00 |  | CNS(=O)(=O)c1cccc(-n2c(=O)n(C(C)C)c3cc(C(=O)NC4(C)CCS(=O)(=O)CC4)ccc32)c1 [Example 57, 3-isopropyl-N-(4-methyl-1,1-dioxidotetrahydro-2H-thiopyran-4-yl)-1-(3-(N-methylsulfamoyl)phenyl)-2-oxo-2,3-dihydro-1H-benzo[d]imidazole-5-carboxamide] |
| < 5.00 |  | CC(C)n1c(=O)n(-c2cccc(S(C)(=O)=O)c2)c2ccc(C(=O)NC3(C)CCS(=O)(=O)CC3)cc21 [Example 58, 3-isopropyl-N-(4-methyl-1,1-dioxidotetrahydro-2H-thiopyran-4-yl)-1-(3-(methylsulfonyl)phenyl)-2-oxo-2,3-dihydro-1H-benzo[d]imidazole-5-carboxamide] |
| 7.42 |  | CC1(NC(=O)c2ccc3c(c2)n(Cc2ccc(F)cc2)c(=O)n3-c2cccc(OC(F)F)c2)CCS(=O)(=O)CC1 [Example 59, 1-(3-(difluoromethoxy)phenyl)-3-(4-fluorobenzyl)-N-(4-methyl-1,1-dioxidotetrahydro-2H-thiopyran-4-yl)-2-oxo-2,3-dihydro-1H-benzo[d]imidazole-5-carboxamide] |
| 5.96 |  | Cn1c(=O)n(-c2cccc(OC(F)F)c2)c2ccc(C(=O)NC3(C)CS(=O)(=O)C3)cc21 [Example 60, 1-(3-(difluoromethoxy)phenyl)-3-methyl-N-(3-methyl-1,1-dioxidothietan-3-yl)-2-oxo-2,3-dihydro-1H-benzo[d]imidazole-5-carboxamide] |
| < 5.00 |  | Cc1nnc(NC(=O)c2ccc3c(c2)n(C(C)C)c(=O)n3-c2cccc(OC(F)F)c2)s1 [Example 61, 1-(3-(difluoromethoxy)phenyl)-3-isopropyl-N-(5-methyl-1,3,4-thiadiazol-2-yl)-2-oxo-2,3-dihydro-1H-benzo[d]imidazole-5-carboxamide] |
| < 5.00 |  | CCn1cc(CNC(=O)c2ccc3c(c2)n(C(C)C)c(=O)n3-c2cccc(OC(F)F)c2)cn1 [Example 63, 1-(3-(difluoromethoxy)phenyl)-N-((1-ethyl-1H-pyrazol-4-yl)methyl)-3-isopropyl-2-oxo-2,3-dihydro-1H-benzo[d]imidazole-5-carboxamide] |
|  | 7.45 | CC(C)(O)Cn1c(=O)n(-c2cccc(OC(F)F)c2)c2ccc(C(=O)NC3(C)CS(=O)(=O)C3)cc21 [Example 64, 1-(3-(difluoromethoxy)phenyl)-3-(2-hydroxy-2-methylpropyl)-N-(3-methyl-1,1-dioxidothietan-3-yl)-2-oxo-2,3-dihydro-1H-benzo[d]imidazole-5-carboxamide] |

— patent US11976061B2, “Preparation of benzimidazolone derivatives as novel diacylglyceride O-acyltransferase 2 inhibitors” (Merck Sharp & Dohme LLC, priority 2020, dated 2024)
